This note sets out measurements from US10632324B2, “Method for the treatment of skin tissues” (9127-4910 Quebec Inc., priority 2017, dated 2020).

The subject of assay [1] is facial papulo-pustular inflammatory acne lesions. As to the kind of experiment: Split-face radiant IR skin preparation prior to PDT, inflammatory acne of the face (Example 6). Type of assay: in vivo, human. How it is done:
A person was treated for facial papulo-pustular inflammatory acne lesions. After performing an acetone scrub on the treatment area, a radiant IR skin preparation was done on the right side of their face (970 nm, 80 mW/cm2, for 30 min). Then 5-aminolevulinic acid (Levulan™ Kerastick™) was applied to the skin and left for 90 min incubation time. […] Radiant IR skin preparation allows for a reduction in the number of PDT treatments necessary for significant clinical improvements.

The next assay concerns cystic acne. As to the kind of experiment: Split face/back pre-PDT radiant IR study, 11 cystic acne patients (Example 7). Type of assay: in vivo, human. To be noted: IR 970 nm 50 mW/cm2 15 min before 5-ALA; one month after PDT; most patients. How it is done: Study Design/Materials and Methods: Eleven (11) patients were enrolled in a split face or split back (pre-treated side versus control) study with a pre-approved IRB protocol. […] Lesion count was assessed both manually and by digital photography before and 4 weeks after one PDT procedure. Prior to the application of 5-ALA, one side of the face or back was pre-treated with radiant IR [CW LEDs emitting @λ 970 nm, irradiance 50 mW/cm2 for 15 minutes, total fluence 45 J/cm2], while the other half was used as control. PDT was then performed on the entire surface (face or back).

In assay [2] the test system is transformation of 5-aminolevulinic acid to protoporphyrin IX (PpIX). Nature of the assay: FluoDerm fluorescence after 940 nm photopreparation 24, 48, 72 h before 5-ALA, 4 subjects (Example 12). The assay is classed as in vivo, human. How it is done:
To obtain greater statistical power and investigate even longer term effects, the above study was repeated on other subjects. Below, the results or comparison between the D50 and CW protocols are shown for 4 subjects. Irradiation was performed in accordance with the pattern of FIG. 44, with measurements taken 24, 48 and 72 hours after pre-treatment with D50 and CW, instead of 8-14, 24-29 and 50-53.
More specifically, delineated treatment areas were drawn on each subject's back. These spaces had to be close enough together to enable simultaneous irradiation downstream in the experiment. Areas of each patient's back were then irradiated according to the predetermined photopreparation treatment parameter at the appropriate pre-5-ALA application and activation time. In this study, two light pulsing options were compared—pulsed versus continuous. Both options were set at 940 nm. The time set between the photopreparation treatment and the 5-ALA application was the other variable tested. […] Following the appropriately timed photopreparation treatment of the correct back skin area, 20% 5-aminolevulinic acid (Levulan Kerastick, Dusa, Wilmington, USA) was applied to the patient's back. After the topical application, an incubation time of 3 hours was set to optimize the transformation of the medication to protoporphyrin IX (PpIX). Finally, using the Fluoroderm device, the fluorescence of each subject's back areas was measured. The recorded data was statistically analyzed.
Besides the 20% 5-aminolevulinic acid (Levulan Kerastick, Dusa, Wilmington, USA) used as the photosensitizer and the FluoDerm (Dia-Medico, Denmark) to quantify the fluorescence of each patient's back, a prototype able to irradiate the back skin areas with pulsed (D50 pulsing condition) and continuous wavelength (CW) light at 940 nm was built. This machine was assembled at RoseLab Skin Optics Research Laboratory (Montreal, Canada). The D50-940 nm condition was made up of 940 nm light with a pulsing pattern consisting of a 50% duty cycle delivered in the repeating pattern (in μseconds where PD, PI, and PTI mean pulse duration, pulse interval, and pulse train interval, respectively) of: PD 500 on, PI 150 off, PD 500 on, PI 150 off, PD 500 on and PTI 1550 off (FIG. 3). The irradiance delivered for all conditions (D50 and CW) was 75 mW/cm^2 and the fluence delivered for all conditions was 67.5 J/cm^2 (940 nm LED treatment duration D50=30 min and CW=15 min).
The FluoDerm measured each tested condition. These measurements were then compared to the control (only 5-ALA without photopreparation). The means of these proportional changes were calculated. The final results were categorized by every photopreparation condition (72, 48 and 24 hours pre-treatment). A 95% confidence interval was calculated for each mean.
The data is analyzed and presented as X-fold changes (or differences) as compared to the just 5-ALA control below. Higher number show a higher effect of pre-treatment with IR radiation.

Assay [3] relates to actinic keratosis lesions. Nature of the assay: Split-face radiant IR skin preparation prior to PDT, actinic keratosis of face and scalp (Example 5). The settings on record: single PDT treatment.

Structures are written as SMILES.

In the case of `NCC(=O)CCC(=O)O` [5-ALA, 5-aminolevulinic acid], the lesion number reduction in assay [1] (IR treated side (970 nm, 80 mW/cm2, 30 min), 90 min incubation, one treatment) is given as 60-70%. Also, the “clinical outcome of side without IR” value in assay [1] (untreated (no IR) side, PDT alone) is recorded as “needed an additional PDT session to achieve similar results”. In addition, the “number of cystic lesions, pre-treated versus control side” value in the assay with cystic acne is recorded as “statistically significant decrease in the number of cystic lesions”. The “X-fold change of fluorescence as compared to the just 5-ALA control, Mean” value is listed as 1.18 fold in assay [2] (24 hours pre-treatment, CW-940, 75 mW/cm2, 67.5 J/cm2); 1.27 fold in assay [2] (24 hours pre-treatment, D50-940, 75 mW/cm2, 67.5 J/cm2); 1.34 fold in assay [2] (48 hours pre-treatment, CW-940, 75 mW/cm2, 67.5 J/cm2); 1.08 fold in assay [2] (48 hours pre-treatment, D50-940, 75 mW/cm2, 67.5 J/cm2); 1.05 fold in assay [2] (72 hours pre-treatment, CW-940, 75 mW/cm2, 67.5 J/cm2); 0.94 fold in assay [2] (72 hours pre-treatment, D50-940, 75 mW/cm2, 67.5 J/cm2). Also, the lesion clearance came out at 40% in assay [3] (left side, no IR pre-treatment) and 60% in assay [3] (right side, IR pre-treated (970 nm, 40 mW/cm2, 30 min), 90 min incubation).
